Assay results: PMC11243685, “Synthesis and Enzymatic Evaluation of a Small Library of Substituted Phenylsulfonamido-Alkyl Sulfamates towards Carbonic Anhydrase II” (Molecules, 2024)

Molecular target: T1, bovine carbonic anhydrase II (Bos taurus, UniProt P00921)
T1 construct: carbonic anhydrase II (bCAII, ≥3000 W-A units/mg from bovine erythrocytes) from Sigma; purchased Sigma (Taufkirchen, Germany); host or cells: isolated from bovine erythrocytes
Experiment: Enzymatic assay of bCA II inhibition, absorbance at 415 nm;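 note: enzyme is carbonic anhydrase II isolated from bovine erythrocytes, with its activity followed photometrically at 415 nm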
Type: biochemical
Settings: CA II; from Lineweaver–Burk, Dixon and Cornish Bowden plots; read-out: Inhibition constant Ki
Description: The enzymatic assays have been performed with carbonic anhydrase II (bCAII, ≥3000 W-A units/mg from bovine erythrocytes) from Sigma (Taufkirchen, Germany) using a BMG Labtech Spectrostar Omega apparatus (BMG Labtech, Ortenberg, Germany) measuring λ = 415 nm. Conditions have been described previously [72]. Ki and Ki′ values were determined from Lineweaver–Burk, Dixon and Cornish Bowden plots, respectively.

T1 sequence (P00921 whole entry): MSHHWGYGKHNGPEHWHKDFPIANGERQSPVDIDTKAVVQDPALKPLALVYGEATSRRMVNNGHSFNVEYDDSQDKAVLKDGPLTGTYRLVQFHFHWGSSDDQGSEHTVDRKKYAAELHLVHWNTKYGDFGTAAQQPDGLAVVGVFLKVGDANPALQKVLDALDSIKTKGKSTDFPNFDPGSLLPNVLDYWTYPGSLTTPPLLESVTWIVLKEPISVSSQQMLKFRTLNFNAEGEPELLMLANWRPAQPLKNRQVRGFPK

Ki | SMILES
1640 ± 30 nM | CC(C)c1cccc(S(=O)(=O)NCCOS(N)(=O)=O)c1 [40b, 2-[(3-Isopropylphenyl)sulfonamido]ethyl Sulfamate]
1580 ± 20 nM | Cc1ccccc1S(=O)(=O)NCCCCCCOS(N)(=O)=O [30b, 6-[(2-Methylphenyl)sulfonamido]hexyl Sulfamate]

Same assay, conditions: bCA II; 1 μM concentration of the inhibitor; triplicate with three technical replicas

SMILES | inhibition at 1 µM
NS(=O)(=O)OCCCCCCCCNS(=O)(=O)c1ccc(C2CCCCC2)cc1 [74b, 8-[(4-Cyclohexylphenyl)sulfonamido]octyl Sulfamate] | 14.2 ± 1.1%
NS(=O)(=O)OCCCCCCCCCCNS(=O)(=O)c1ccc(C2CCCCC2)cc1 [76b, 10-[(4-Cyclohexylphenyl)sulfonamido]decyl Sulfamate] | 19.7 ± 1.6%
CC(C)c1cccc(S(=O)(=O)NCCOS(N)(=O)=O)c1 [40b, 2-[(3-Isopropylphenyl)sulfonamido]ethyl Sulfamate] | 63.7 ± 0.1%
NS(=O)(=O)OCCCCNS(=O)(=O)c1ccc(C2CCCCC2)cc1 [70b, 4-[(4-Cyclohexylphenyl)sulfonamido]butyl Sulfamate] | 34.7 ± 2.5%
NS(=O)(=O)OCCNS(=O)(=O)c1ccc(C2CCCCC2)cc1 [68b, 2-[(4-Cyclohexylphenyl)sulfonamido]ethyl Sulfamate] | 52.1 ± 1.2%

Next, values leading:

inhibition at 1 µM | SMILES
34.2 ± 0.7% | CC(C)c1ccccc1S(=O)(=O)NCCCCCCCCOS(N)(=O)=O [48b, 8-[(2-Isopropylphenyl)sulfonamido]octyl Sulfamate]
18.6 ± 1% | NS(=O)(=O)OCCCCCNS(=O)(=O)c1ccc(C2CCCCC2)cc1 [71b, 5-[(4-Cyclohexylphenyl)sulfonamido]pentyl Sulfamate]
56.2 ± 0.8% | CC(C)(C)c1ccccc1S(=O)(=O)NCCCCCOS(N)(=O)=O [65b, 5-[(2-(tert-Butyl)phenyl)sulfonamido]pentyl Sulfamate]
39.2 ± 0.1% | CC(C)(C)c1cccc(S(=O)(=O)NCCCCCOS(N)(=O)=O)c1 [61b, 5-[(3-(tert-Butyl)phenyl)sulfonamido]pentyl Sulfamate]
51.8 ± 0.7% | NS(=O)(=O)OCCCCCNS(=O)(=O)c1ccccc1 [4b, 5-(Phenylsulfonamido]pentyl Sulfamate]
32.2 ± 0.3% | NS(=O)(=O)OCCCCNS(=O)(=O)c1ccccc1 [3b, 4-(Phenylsulfonamido]butyl Sulfamate]
14.8 ± 0.4% | NS(=O)(=O)OCCCCCCCNS(=O)(=O)c1ccc(C2CCCCC2)cc1 [73b, 7-[(4-Cyclohexylphenyl)sulfonamido]heptyl Sulfamate]
55.6 ± 0.7% | Cc1ccccc1S(=O)(=O)NCCCCCCCOS(N)(=O)=O [31b, 7-[(2-Methylphenyl)sulfonamido]heptyl Sulfamate]
33.3 ± 0.3% | CC(C)(C)c1cccc(S(=O)(=O)NCCCCCCCOS(N)(=O)=O)c1 [63b, 7-[(3-(tert-Butyl)phenyl)sulfonamido]heptyl Sulfamate]
38.4 ± 0.2% | CC(C)c1ccccc1S(=O)(=O)NCCCCCCCOS(N)(=O)=O [47b, 7-[(2-Isopropylphenyl)sulfonamido]heptyl Sulfamate]
68.1 ± 0.3% | Cc1ccccc1S(=O)(=O)NCCCCCCOS(N)(=O)=O [30b, 6-[(2-Methylphenyl)sulfonamido]hexyl Sulfamate]
59.2 ± 0.8% | NS(=O)(=O)OCCNS(=O)(=O)c1ccccc1 [1b, 2-(Phenylsulfonamido]ethyl Sulfamate]
35.3 ± 0.5% | CC(C)c1cccc(S(=O)(=O)NCCCCOS(N)(=O)=O)c1 [42b, 4-[(3-Isopropylphenyl)sulfonamido]butyl Sulfamate]
56.2 ± 0.8% | Cc1ccccc1S(=O)(=O)NCCCCCCCCOS(N)(=O)=O [32b, 8-[(2-Methylphenyl)sulfonamido]octyl Sulfamate]
53.9 ± 0.3% | CC(C)(C)c1cccc(S(=O)(=O)NCCCOS(N)(=O)=O)c1 [59b, 3-[(3-(tert-Butyl)phenyl)sulfonamido]propyl Sulfamate]
27.5 ± 0.3% | CC(C)(C)c1ccccc1S(=O)(=O)NCCCCCCCOS(N)(=O)=O [67b, 7-[(2-(tert-Butyl)phenyl)sulfonamido]heptyl Sulfamate]
41.7 ± 0.8% | CC(C)(C)c1cccc(S(=O)(=O)NCCCCCCOS(N)(=O)=O)c1 [62b, 6-[(3-(tert-Butyl)phenyl)sulfonamido]hexyl Sulfamate]
37 ± 0.3% | CC(C)c1cccc(S(=O)(=O)NCCCCCCCOS(N)(=O)=O)c1 [45b, 7-[(3-Isopropylphenyl)sulfonamido]heptyl Sulfamate]
34.5 ± 0.4% | CC(C)(C)c1ccccc1S(=O)(=O)NCCCCCCOS(N)(=O)=O [66b, 6-[(2-(tert-Butyl)phenyl)sulfonamido]hexyl Sulfamate]
43.3 ± 0.6% | CC(C)(C)c1cccc(S(=O)(=O)NCCCCOS(N)(=O)=O)c1 [60b, 4-[(3-(tert-Butyl)phenyl)sulfonamido]butyl Sulfamate]
54 ± 0.9% | CC(C)(C)c1cccc(S(=O)(=O)NCCOS(N)(=O)=O)c1 [58b, 2-[(3-(tert-Butyl)phenyl)sulfonamido]ethyl Sulfamate]
37.9 ± 0.7% | Cc1ccccc1S(=O)(=O)NCCCCOS(N)(=O)=O [28b, 4-[(2-Methylphenyl)sulfonamido]butyl Sulfamate]
57.2 ± 0.7% | Cc1ccccc1S(=O)(=O)NCCCCCOS(N)(=O)=O [29b, 5-[(2-Methylphenyl)sulfonamido]pentyl Sulfamate]
29.5 ± 0.9% | CC(C)c1cccc(S(=O)(=O)NCCCCCCCCOS(N)(=O)=O)c1 [46b, 8-[(3-Isopropylphenyl)sulfonamido]octyl Sulfamate]
50.1 ± 0.9% | CC(C)c1cccc(S(=O)(=O)NCCCOS(N)(=O)=O)c1 [41b, 3-[(3-Isopropylphenyl)sulfonamido]propyl Sulfamate]
44.4 ± 0.3% | CC(C)c1cccc(S(=O)(=O)NCCCCCOS(N)(=O)=O)c1 [43b, 5-[(3-Isopropylphenyl)sulfonamido]pentyl Sulfamate]
45.5 ± 0.7% | CC(C)c1cccc(S(=O)(=O)NCCCCCCOS(N)(=O)=O)c1 [44b, 6-[(3-Isopropylphenyl)sulfonamido]hexyl Sulfamate]

Test system: not given
Experiment: not given
Settings: not given

melting point | SMILES
78 to 79 °C | O=S(=O)(NCCO)c1ccccc1 [1a, N-(2-Hydroxyethyl)benzene Sulfonamide]
59 to 60 °C | O=S(=O)(NCCCCCCCCO)c1ccccc1 [7a, N-(8-Hydroxyoctyl)benzene Sulfonamide]
69 to 70 °C | CC(C)(C)c1ccc(S(=O)(=O)NCCCCCCCCCO)cc1 [56a, 4-(tert-Butyl)-N-(9-hydroxynonyl)benzene Sulfonamide]
49 to 51 °C | Cc1ccc(S(=O)(=O)NCCCCCCO)cc1 [16a, N-(6-Hydroxyhexyl)-4-methylbenzene Sulfonamide]
40 to 41 °C | O=S(=O)(NCCCCCCCCCO)c1ccccc1 [8a, N-(9-Hydroxynonyl)benzene Sulfonamide]
51 to 52 °C | CC(C)(C)c1ccc(S(=O)(=O)NCCCCCCCO)cc1 [54a, 4-(tert-Butyl)-N-(7-hydroxyheptyl)benzene Sulfonamide]
50 to 51 °C | Cc1ccc(S(=O)(=O)NCCCCO)cc1 [14a, N-(4-Hydroxybutyl)-4-methylbenzene Sulfonamide]
55 to 57 °C | Cc1ccc(S(=O)(=O)NCCO)cc1 [12a, N-(2-Hydroxyethyl)-4-methylbenzene Sulfonamide]
40 to 42 °C | O=S(=O)(NCCCCCCO)c1ccccc1 [5a, N-(6-Hydroxyhexyl)benzene Sulfonamide]
67 to 69 °C | O=S(=O)(NCCCCCCCCCCO)c1ccccc1 [9a, N-(10-Hydroxydecyl)benzene Sulfonamide]
101 to 102 °C | O=S(=O)(NCCCCCCCCO)c1ccc(C23CC4CC(CC(C4)C2)C3)cc1 [77a, 4-(Adamantan-1-yl)-N-(8-hydroxyoctyl)benzene Sulfonamide]
69 to 71 °C | CC(C)(C)c1ccc(S(=O)(=O)NCCCCCCCCO)cc1 [55a, 4-(tert-Butyl)-N-(8-hydroxyoctyl)benzene Sulfonamide]
76 to 79 °C | O=S(=O)(NCCCCCCCCCCO)c1ccc(C23CC4CC(CC(C4)C2)C3)cc1 [79a, 4-(Adamantan-1-yl)-N-(10-hydroxydecyl)benzene Sulfonamide]
53 to 54 °C | CC(C)(C)c1ccc(S(=O)(=O)NCCCCCO)cc1 [52a, 4-(tert-Butyl)-N-(5-hydroxypentyl)benzene Sulfonamide]
87 to 88 °C | Cc1ccc(S(=O)(=O)NCCCCCCCCO)cc1 [18a, N-(8-Hydroxyoctyl)-4-methylbenzene Sulfonamide]
53 to 54 °C | CC(C)(C)c1ccc(S(=O)(=O)NCCCCCCO)cc1 [53a, 4-(tert-Butyl)-N-(6-hydroxyhexyl)benzene Sulfonamide]
75 to 77 °C | CC(C)(C)c1ccc(S(=O)(=O)NCCO)cc1 [49a, 4-(tert-Butyl)-N-(2-hydroxyethyl)benzene Sulfonamide]
75 to 76 °C | CC(C)(C)c1ccc(S(=O)(=O)NCCCCCCCCCCO)cc1 [57a, 4-(tert-Butyl)-N-(10-hydroxydecyl)benzene Sulfonamide]
73 to 74 °C | Cc1ccccc1S(=O)(=O)NCCO [26a, N-(2-Hydroxyethyl)-2-methylbenzene Sulfonamide]
76 to 77 °C | O=S(=O)(NCCCCCCCCCCCCO)c1ccccc1 [11a, N-(12-Hydroxydodecyl)benzene Sulfonamide]
58 to 59 °C | O=S(=O)(NCCCCCCCCCCCO)c1ccccc1 [10a, N-(11-Hydroxyundecyl)benzene Sulfonamide]
55 to 57 °C | Cc1ccc(S(=O)(=O)NCCCO)cc1 [13a, N-(3-Hydroxypropyl)-4-methylbenzene Sulfonamide]
58 to 60 °C | CC(C)(C)c1ccc(S(=O)(=O)NCCCCO)cc1 [51a, 4-(tert-Butyl)-N-(4-hydroxybutyl)benzene Sulfonamide]
87 to 88 °C | O=S(=O)(NCCCCCCO)c1ccc(C2CCCCC2)cc1 [72a, 4-Cyclohexyl-N-(6-hydroxyhexyl)benzene Sulfonamide]
84 to 85 °C | O=S(=O)(NCCCCCCCCCO)c1ccc(C23CC4CC(CC(C4)C2)C3)cc1 [78a, 4-(Adamantan-1-yl)-N-(9-hydroxynonyl)benzene Sulfonamide]
